1 molecule from publication doi:10.1101/2023.09.01.555951v1 (biorxiv, 2023) can be followed below.

Assay [1] deals with T1, OpuAC (isolated SBD of OpuA) (Lactococcus lactis, UniProt Q7DAU8, K521C/S319C).
T1 sequence (Q7DAU8 319-573 S319C/K521C): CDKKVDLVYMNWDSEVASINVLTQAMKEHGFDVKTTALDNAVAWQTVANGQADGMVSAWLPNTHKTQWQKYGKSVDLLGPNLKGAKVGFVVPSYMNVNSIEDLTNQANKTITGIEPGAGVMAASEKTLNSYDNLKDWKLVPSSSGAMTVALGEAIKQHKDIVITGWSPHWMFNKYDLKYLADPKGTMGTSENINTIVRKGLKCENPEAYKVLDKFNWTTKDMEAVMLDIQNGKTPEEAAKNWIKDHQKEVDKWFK
The assay can be described thus: intrinsic tryptophan fluorescence titration. Format: binding.

Assay [2] concerns the target T2, OpuAC (isolated SBD of OpuA) (Lactococcus lactis, UniProt Q7DAU8).
T2 sequence (Q7DAU8 319-573): T1 sequence (Q7DAU8 319-573 S319C/K521C) with C1S, C203K
The assay can be described thus: intrinsic tryptophan fluorescence titration. Format: binding.

The structures appear in SMILES notation. Changes are numbered by the printed parent chain.

Consider `C[N+](C)(C)CC(=O)[O-]` [glycine betaine], for which the Kd worked out at 4.3 ± 0.4 µM in assay [1] and 4.4 ± 0.1 µM in assay [2].

Broadly, the Kd is the constant that tells how readily two partners part at equilibrium. Read a high Kd as a looser complex.
